Experimental data: patent publication US12685735B2 (Foghorn Therapeutics Inc., priority 2020, dated 2026)
Where two headings read alike, the source gives them in different places.

What was measured:
BRM = BRM (Homo sapiens, UniProt P51531); assay: ATPase catalytic activity assay of BRM (ADP-Glo); assay type: biochemical; conditions: for IC50: read-out: BRM IC50 (μM)*
Procedure, shortened: (§1)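 ADP formed by the ATPase reaction was quantified by ADP-Glo luminescence. After the reaction, unconsumed ATP was depleted (40 min, room temperature), then ADP was converted to ATP for luciferase detection (60 min, room temperature) before reading on a luminometer.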

BRG-1 = BRG-1 (Homo sapiens, UniProt P51532); assay: ATPase catalytic activity assay of BRG-1 (ADP-Glo); assay type: biochemical; conditions: ATPase catalytic activity, ADP-Glo; for IC50: read-out: BRG1 IC50 (μM)*; for Emax: read-out: BRG1 Max % Inhibition
Chain of BRG-1 (P51532 whole entry): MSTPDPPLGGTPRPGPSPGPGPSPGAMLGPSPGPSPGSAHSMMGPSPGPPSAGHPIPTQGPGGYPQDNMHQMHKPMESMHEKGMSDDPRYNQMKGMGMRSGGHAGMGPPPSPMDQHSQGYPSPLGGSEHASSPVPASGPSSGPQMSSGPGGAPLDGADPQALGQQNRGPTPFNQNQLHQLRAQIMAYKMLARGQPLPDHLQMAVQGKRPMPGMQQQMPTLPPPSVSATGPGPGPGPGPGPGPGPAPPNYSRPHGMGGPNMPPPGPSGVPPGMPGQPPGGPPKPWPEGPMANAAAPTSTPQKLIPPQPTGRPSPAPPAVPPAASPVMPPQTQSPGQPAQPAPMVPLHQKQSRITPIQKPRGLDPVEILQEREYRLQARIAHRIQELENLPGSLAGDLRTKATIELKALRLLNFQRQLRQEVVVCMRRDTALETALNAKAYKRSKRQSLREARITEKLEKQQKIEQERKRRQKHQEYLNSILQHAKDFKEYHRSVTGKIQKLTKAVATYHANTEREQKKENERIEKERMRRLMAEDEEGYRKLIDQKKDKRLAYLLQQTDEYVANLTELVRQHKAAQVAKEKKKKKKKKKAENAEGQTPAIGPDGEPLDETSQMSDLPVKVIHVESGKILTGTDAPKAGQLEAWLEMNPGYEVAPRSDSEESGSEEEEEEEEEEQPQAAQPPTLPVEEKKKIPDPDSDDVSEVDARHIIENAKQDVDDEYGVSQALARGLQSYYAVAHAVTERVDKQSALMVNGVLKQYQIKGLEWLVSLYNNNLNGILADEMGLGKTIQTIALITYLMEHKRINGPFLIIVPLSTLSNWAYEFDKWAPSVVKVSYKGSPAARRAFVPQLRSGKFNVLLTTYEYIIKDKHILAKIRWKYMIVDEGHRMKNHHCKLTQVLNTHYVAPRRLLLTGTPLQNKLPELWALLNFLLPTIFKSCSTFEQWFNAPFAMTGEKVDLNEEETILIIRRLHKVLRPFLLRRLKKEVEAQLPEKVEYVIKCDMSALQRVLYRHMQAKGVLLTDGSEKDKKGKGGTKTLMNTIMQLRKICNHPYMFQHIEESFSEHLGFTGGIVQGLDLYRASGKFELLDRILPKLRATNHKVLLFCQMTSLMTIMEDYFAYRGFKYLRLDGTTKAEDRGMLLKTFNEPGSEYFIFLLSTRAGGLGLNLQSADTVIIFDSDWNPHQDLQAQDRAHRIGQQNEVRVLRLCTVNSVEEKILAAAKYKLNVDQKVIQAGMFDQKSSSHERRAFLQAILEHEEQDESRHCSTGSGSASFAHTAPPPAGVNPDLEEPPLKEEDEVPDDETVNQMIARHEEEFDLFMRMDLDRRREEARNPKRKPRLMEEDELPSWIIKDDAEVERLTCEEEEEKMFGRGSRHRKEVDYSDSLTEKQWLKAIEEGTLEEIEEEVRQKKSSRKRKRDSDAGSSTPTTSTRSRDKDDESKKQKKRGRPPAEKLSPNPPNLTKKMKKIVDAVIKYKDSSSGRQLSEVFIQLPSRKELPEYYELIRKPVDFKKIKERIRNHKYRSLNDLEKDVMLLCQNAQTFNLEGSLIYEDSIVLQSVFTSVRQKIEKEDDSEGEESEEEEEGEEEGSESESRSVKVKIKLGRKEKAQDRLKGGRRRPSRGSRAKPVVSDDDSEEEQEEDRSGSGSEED
Procedure, shortened: as §1

Chain of BRM (P51531 whole entry): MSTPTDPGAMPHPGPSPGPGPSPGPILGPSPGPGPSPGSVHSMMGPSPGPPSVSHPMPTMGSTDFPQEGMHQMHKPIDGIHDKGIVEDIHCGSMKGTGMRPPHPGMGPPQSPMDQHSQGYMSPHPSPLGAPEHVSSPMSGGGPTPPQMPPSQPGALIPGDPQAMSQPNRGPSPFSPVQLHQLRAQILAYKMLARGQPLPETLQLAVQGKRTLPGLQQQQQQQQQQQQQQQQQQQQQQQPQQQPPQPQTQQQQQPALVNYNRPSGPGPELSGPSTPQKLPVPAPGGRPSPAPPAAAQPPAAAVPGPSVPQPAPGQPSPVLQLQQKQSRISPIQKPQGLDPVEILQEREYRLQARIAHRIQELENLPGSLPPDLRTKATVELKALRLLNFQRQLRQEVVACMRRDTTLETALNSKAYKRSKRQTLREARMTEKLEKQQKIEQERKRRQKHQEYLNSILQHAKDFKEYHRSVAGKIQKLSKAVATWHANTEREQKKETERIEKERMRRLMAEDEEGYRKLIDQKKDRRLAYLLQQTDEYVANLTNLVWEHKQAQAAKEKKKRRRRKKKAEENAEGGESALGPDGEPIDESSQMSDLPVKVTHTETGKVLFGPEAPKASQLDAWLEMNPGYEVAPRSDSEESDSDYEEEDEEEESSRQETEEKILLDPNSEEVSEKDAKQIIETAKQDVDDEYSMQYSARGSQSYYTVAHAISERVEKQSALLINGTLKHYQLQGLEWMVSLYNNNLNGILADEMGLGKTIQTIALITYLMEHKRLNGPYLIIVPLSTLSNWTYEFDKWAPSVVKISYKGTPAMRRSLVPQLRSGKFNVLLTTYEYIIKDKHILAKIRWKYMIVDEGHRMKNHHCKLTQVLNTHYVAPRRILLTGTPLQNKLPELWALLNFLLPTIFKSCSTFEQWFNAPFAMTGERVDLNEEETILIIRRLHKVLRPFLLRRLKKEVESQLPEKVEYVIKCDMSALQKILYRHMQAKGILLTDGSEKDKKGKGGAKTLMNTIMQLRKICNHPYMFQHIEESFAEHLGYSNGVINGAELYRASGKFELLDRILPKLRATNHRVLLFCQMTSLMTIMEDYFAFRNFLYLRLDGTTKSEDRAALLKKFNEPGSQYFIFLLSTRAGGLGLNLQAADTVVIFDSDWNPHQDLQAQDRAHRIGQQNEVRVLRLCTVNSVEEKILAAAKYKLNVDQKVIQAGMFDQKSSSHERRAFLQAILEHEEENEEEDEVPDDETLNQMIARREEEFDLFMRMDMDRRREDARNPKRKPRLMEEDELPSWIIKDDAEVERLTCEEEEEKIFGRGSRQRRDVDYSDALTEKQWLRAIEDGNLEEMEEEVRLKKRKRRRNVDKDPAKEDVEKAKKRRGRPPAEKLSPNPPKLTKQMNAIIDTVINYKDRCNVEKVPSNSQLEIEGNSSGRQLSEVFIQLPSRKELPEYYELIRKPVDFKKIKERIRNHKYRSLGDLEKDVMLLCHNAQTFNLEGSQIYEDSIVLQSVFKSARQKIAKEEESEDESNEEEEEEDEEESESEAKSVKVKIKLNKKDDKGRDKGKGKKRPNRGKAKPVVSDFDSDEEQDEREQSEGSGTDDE

| Compound | BRM Max % Inhibition (BRM) [%] | IC50 (BRM) [µM] | IC50 (BRG-1) [µM] | Emax (BRG-1) [%] | BRM Max % Inhibition (BRM; 30 nM BRM, 400 μM ATP) [%] | IC50 (BRM; 30 nM BRM, 400 μM ATP) [µM] | IC50 (BRG-1; 30 nM BRG-1, 400 μM ATP) [µM] | Emax (BRG-1; 30 nM BRG-1, 400 μM ATP) [%] |
| --- | --- | --- | --- | --- | --- | --- | --- | --- |
| Cn1ncc2ccc(-c3csc(NC(=O)CNC(=O)c4ccc5c(c4)[C@@](C)(CO)CC5)n3)cc21 [Compound 261, (S)-3-(hydroxymethyl)-3-methyl-N-(2-((4-(1-methyl-1H-indazol-6-yl)thiazol-2-yl)amino)-2-oxoethyl)-2,3-dihydro-1H-indene-5-carboxamide] | >60 | 1 to 5 | > 5 | > 30 |  |  |  |  |
| C[C@@H]1CN(c2cccc(-c3csc(NC(=O)CNC(=O)c4ccc5c(c4)[C@@](F)(C(F)F)CCO5)n3)c2)C[C@H](C)O1 [Compound 275, (R)-4-(difluoromethyl)-N-(2-((4-(3-((cis)-2,6-dimethylmorpholino)phenyl)thiazol-2-yl)amino)-2-oxoethyl)-4-fluorochromane-6-carboxamide] | >95 | < 0.1 | 0.1 to 1 | > 95 |  |  |  |  |
| C[C@@H]1CN(c2cccc(-c3csc(NC(=O)CNC(=O)c4cccc([C@H]5COC[C@@H]5O)c4)n3)c2)C[C@H](C)O1 [Compound 156, N-(2-((4-(3-((cis)-2,6-dimethylmorpholino)phenyl)thiazol-2-yl)amino)-2-oxoethyl)-3-((3S,4R)-4-hydroxytetrahydrofuran-3-yl)benzamide] | >80 | 0.1 to 1 | > 5 | > 30 |  |  |  |  |
| C[C@@H]1CN(c2cc(F)cc(-c3csc(NC(=O)CNC(=O)c4ccc(Cl)c(C(C)(C)CO)c4)n3)c2)C[C@H](C)O1 [Compound 199, 4-chloro-N-[2-[[4-[3-[(cis)-2,6-dimethylmorpholin-4-yl]-5-fluoro-phenyl]thiazol-2-yl]amino]-2-oxo-ethyl]-3-(2-hydroxy-1,1-dimethyl-ethyl)benzamide] | >95 | < 0.1 | < 0.1 | > 95 |  |  |  |  |
| C[C@@H]1CN(c2cccc(-c3csc(NC(=O)CNC(=O)c4ccc5c(c4)[C@](C)(C#N)CC5)n3)n2)C[C@H](C)O1 [Compound 152, (R)-3-cyano-N-(2-((4-(6-((cis)-2,6-dimethylmorpholino)pyridin-2-yl)thiazol-2-yl)amino)-2-oxoethyl)-3-methyl-2,3-dihydro-1H-indene-5-carboxamide] | >95 | < 0.1 | < 0.1 | > 95 |  |  |  |  |
| COc1cccc(-c2csc(NC(=O)CNC(=O)c3ccc4c(c3)C(C)(O)COC4)n2)c1 (stereo not shown) [Compound 313, 4-hydroxy-N-(2-((4-(3-methoxyphenyl)thiazol-2-yl)amino)-2-oxoethyl)-4-methylisochromane-6-carboxamide] | >90 | 0.1 to 1 | 1 to 5 | > 90 |  |  |  |  |
| C[C@@H]1CN(c2cccc(-c3csc(NC(=O)CNC(=O)c4ccc5c(c4)[C@](C)(CO)CCO5)n3)c2)C[C@H](C)O1 [Compound 165, (R)-N-(2-((4-(3-((cis)-2,6-dimethylmorpholino)phenyl)thiazol-2-yl)amino)-2-oxoethyl)-4-(hydroxymethyl)-4-methylchroman-6-carboxamide] | >90 | 0.1 to 1 | > 5 | < 40 |  |  |  |  |
| CC1(C#N)CCOc2ccc(C(=O)NCC(=O)Nc3nc(-c4cccc(C(F)F)c4)cs3)cc21 (stereo in doubt) [Compound 442, (S)-4-cyano-N-(2-((4-(3-(difluoromethyl)phenyl)thiazol-2-yl)amino)-2-oxoethyl)-4-methylchromane-6-carboxamide] |  |  |  |  | >95 | < 0.1 | 0.1 to 1 | > 95 |
| O=C(CNC(=O)c1cccc(C2(C(F)F)COC2)c1)Nc1nc(-c2cccc(C(F)F)c2)cs1 [Compound 344, 3-(3-(difluoromethyl)oxetan-3-yl)-N-(2-((4-(3-(difluoromethyl)phenyl)thiazol-2-yl)amino)-2-oxoethyl)benzamide] | >95 | 0.1 to 1 | 0.1 to 1 | > 95 |  |  |  |  |
| C[C@@]1(CO)CCc2ccc(C(=O)NCC(=O)Nc3nc(-c4cccc(-c5cnccn5)n4)cs3)cc21 [Compound 167, (R)-3-(hydroxymethyl)-3-methyl-N-(2-oxo-2-((4-(6-(pyrazin-2-yl)pyridin-2-yl)thiazol-2-yl)amino)ethyl)-2,3-dihydro-1H-indene-5-carboxamide] | >95 | 0.1 to 1 | > 5 | > 50 |  |  |  |  |
| Cc1cncc(-c2cccc(-c3csc(NC(=O)CNC(=O)c4ccc5c(c4)[C@](C)(CO)CC5)n3)n2)n1 [Compound 163, (R)-3-(hydroxymethyl)-3-methyl-N-(2-((4-(6-(6-methylpyrazin-2-yl)pyridin-2-yl)thiazol-2-yl)amino)-2-oxoethyl)-2,3-dihydro-1H-indene-5-carboxamide] | >90 | < 0.1 | 1 to 5 | > 40 |  |  |  |  |

The remaining lines, values ahead:

| BRM Max % Inhibition (BRM) [%] | IC50 (BRM) [µM] | IC50 (BRG-1) [µM] | Emax (BRG-1) [%] | BRM Max % Inhibition (BRM; 30 nM BRM, 400 μM ATP) [%] | IC50 (BRM; 30 nM BRM, 400 μM ATP) [µM] | IC50 (BRG-1; 30 nM BRG-1, 400 μM ATP) [µM] | Emax (BRG-1; 30 nM BRG-1, 400 μM ATP) [%] | Compound |
| --- | --- | --- | --- | --- | --- | --- | --- | --- |
| >95 | 0.1 to 1 | 1 to 5 | > 80 |  |  |  |  | O=C(CNC(=O)c1ccc2c(c1)C1(CCNC1=O)CC2)Nc1nc(-c2cccc(-c3ccncc3)c2)cs1 (stereo not shown) [Compound 108] |
| >95 | < 0.1 | 1 to 5 | > 70 |  |  |  |  | C[C@@H]1CN(c2cccc(-c3csc(NC(=O)CNC(=O)c4ccc5c(c4)[C@@]4(CCC[C@@H]4O)CC5)n3)c2)C[C@H](C)O1 [Compound 186, (1R,2S)-N-(2-((4-(3-((cis)-2,6-dimethylmorpholino)phenyl)thiazol-2-yl)amino)-2-oxoethyl)-2-hydroxy-2′,3′-dihydrospiro[cyclopentane-1,1′-indene]-6′-carboxamide] |
| >85 | 0.1 to 1 | 1 to 5 | > 85 |  |  |  |  | CC1OCCc2cc(C(=O)NCC(=O)Nc3nc(-c4cccc(N5C[C@@H](C)O[C@@H](C)C5)n4)cs3)ccc21 (stereo partly drawn) [Compound 271, N-(2-((4-(6-((cis)-2,6-dimethylmorpholino)pyridin-2-yl)thiazol-2-yl)amino)-2-oxoethyl)-1-methylisochromane-6-carboxamide] |
|  |  |  |  | >95 | < 0.1 | 0.1 to 1 | > 95 | Cc1cncc(-c2cccc(-c3csc(NC(=O)CNC(=O)c4ccc5c(c4)C(C)(CO)CC5)n3)c2)n1 (stereo in doubt) [Compound 432, (S)-3-(hydroxymethyl)-3-methyl-N-(2-((4-(3-(6-methylpyrazin-2-yl)phenyl)thiazol-2-yl)amino)-2-oxoethyl)-2,3-dihydro-1H-indene-5-carboxamide] |
| >95 | < 0.1 | 0.1 to 1 | > 95 |  |  |  |  | C[C@@]1(C#N)COCc2ccc(C(=O)NCC(=O)Nc3nc(-c4cccc([C@@]56CCOC[C@@H]5C6)n4)cs3)cc21 [Compound 292, (R)-N-(2-((4-(6-((1R,6S)-3-oxabicyclo[4.1.0]heptan-6-yl)pyridin-2-yl)thiazol-2-yl)amino)-2-oxoethyl)-4-cyano-4-methylisochromane-6-carboxamide] |
| >95 | < 0.1 | 0.1 to 1 | > 80 |  |  |  |  | Cc1cc(-c2cccc(-c3csc(NC(=O)CNC(=O)c4ccc5c(c4)[C@@](C)(CO)CCC5)n3)c2)cc(C)n1 [Compound 231, (S)-N-(2-((4-(3-(2,6-dimethylpyridin-4-yl)phenyl)thiazol-2-yl)amino)-2-oxoethyl)-8-(hydroxymethyl)-8-methyl-5,6,7,8-tetrahydronaphthalene-2-carboxamide] |
| >90 | 0.1 to 1 | > 5 | > 60 |  |  |  |  | CC(C)(CN)c1cccc(C(=O)NCC(=O)Nc2nc(-c3cccc(-c4cccc(C#N)c4)c3)cs2)c1 [Compound 55, 3-(1-amino-2-methylpropan-2-yl)-N-(2-((4-(3′-cyano-[1,1′-biphenyl]-3-yl)thiazol-2-yl)amino)-2-oxoethyl)benzamide] |
| >70 | 1 to 5 | 1 to 5 | > 40 |  |  |  |  | Cn1ccc2ccc(-c3csc(NC(=O)CNC(=O)c4cccc(C(C)(C)CN)c4)n3)cc2c1=O [Compound 67, 3-(1-amino-2-methylpropan-2-yl)-N-(2-((4-(2-methyl-1-oxo-1,2-dihydroisoquinolin-7-yl)thiazol-2-yl)amino)-2-oxoethyl)benzamide] |
| >95 | < 0.1 | 0.1 to 1 | > 95 |  |  |  |  | C[C@@]1(F)COCc2ccc(C(=O)NCC(=O)Nc3nc(-c4cccc(C#N)c4)cs3)cc21 [Compound 315, (S)-N-(2-((4-(3-cyanophenyl)thiazol-2-yl)amino)-2-oxoethyl)-4-fluoro-4-methylisochromane-6-carboxamide] |
| >95 | < 0.1 | < 0.1 | > 95 |  |  |  |  | COC1CN(c2cccc(-c3csc(NC(=O)CNC(=O)c4ccc5c(c4)[C@](C)(C#N)COC5)n3)c2)C1 [Compound 390, (R)-4-cyano-N-(2-((4-(3-(3-methoxyazetidin-1-yl)phenyl)thiazol-2-yl)amino)-2-oxoethyl)-4-methylisochromane-6-carboxamide] |
|  |  |  |  | >90 | 0.1 to 1 | > 5 | > 90 | COc1cccc(-c2csc(NC(=O)CNC(=O)c3ccc4c(c3)C(C)(C#N)CCN4)n2)c1 (stereo not shown) [Compound 415, 4-cyano-N-(2-((4-(3-methoxyphenyl)thiazol-2-yl)amino)-2-oxoethyl)-4-methyl-1,2,3,4-tetrahydroquinoline-6-carboxamide] |
